Measurements published in patent publication US9145354B2, “Pharmaceutical compounds” (priority 2011, dated 2015).
Like-named read-outs stand apart in the source and are kept apart here.

Biological target: full length NS3/4a (Hepatitis C virus genotype 1b (isolate BK) (HCV), UniProt P26663)
Test: NS3 Protease Assay (Example A), FRET-based
Assay type: biochemical
Protocol: The HCV NS3 protease functions have been extensively studied and are considered as potential targets for antiviral therapy: see for example the many references listed in the introductory section of this application. Therefore, the activity of the compounds of the invention as anti-HCV agents was assessed using a full length HCV NS3 protease.
The protease activity of the full length NS3/4a was measured using a FRET-based assay utilizing a peptide substrate derived from the NS4A/B cleavage site (Anaspec) and labelled at one end with a quencher (QXL520) and at the other with a fluorophore (5-FAMsp). NS3/4a (produced in-house by literature methods) was incubated with test compounds and peptide substrate in 50 mM Tris pH8, 20 mM DTT, 1% CHAPS, 10% glycerol and 5% DMSO. The reaction was followed by monitoring the change in fluorescence on a Molecular Devices Gemini plate reader for 30 minutes at room temperature. Initial rates were calculated from the progress curves using SoftMax Pro (Molecular Devices). IC50 values were then calculated from replicate curves using Prism GraphPad software.

[1] = HCV NS3 protease assay, full length NS3/4a, read-out: Assay A IC50 (μM) average
[2] = read-out: IC50 against the protease activity of the full length NS3/4a
[3] = stated as IC50 less than 30 μM or at least 40% inhibition at a concentration of 100 μM, read-out: IC50 against the protease activity of the full length NS3/4a

full length NS3/4a, sequence (P26663 1027-1657): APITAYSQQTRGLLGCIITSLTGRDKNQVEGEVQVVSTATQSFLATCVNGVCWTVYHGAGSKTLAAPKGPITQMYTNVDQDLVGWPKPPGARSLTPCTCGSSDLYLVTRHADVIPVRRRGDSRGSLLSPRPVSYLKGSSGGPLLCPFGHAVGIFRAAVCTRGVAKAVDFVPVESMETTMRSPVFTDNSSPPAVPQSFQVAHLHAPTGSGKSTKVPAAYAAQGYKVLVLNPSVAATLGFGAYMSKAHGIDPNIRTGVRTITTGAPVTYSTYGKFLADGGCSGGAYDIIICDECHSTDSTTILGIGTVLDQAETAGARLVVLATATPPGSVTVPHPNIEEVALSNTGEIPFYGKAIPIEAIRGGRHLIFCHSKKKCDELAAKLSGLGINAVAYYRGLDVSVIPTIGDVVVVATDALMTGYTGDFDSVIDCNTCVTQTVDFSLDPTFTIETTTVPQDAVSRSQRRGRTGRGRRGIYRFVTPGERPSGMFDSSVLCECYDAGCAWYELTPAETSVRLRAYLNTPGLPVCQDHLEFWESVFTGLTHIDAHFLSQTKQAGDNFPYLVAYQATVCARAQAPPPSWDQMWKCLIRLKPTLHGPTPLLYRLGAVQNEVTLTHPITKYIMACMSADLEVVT

CC[C@@H](N[C@H](C)CC(N)=O)c1ccc(Cl)c(C(=O)c2ccc(C#N)cc2)c1F [Example 92, (3R)-3-{[(1R)-1-{4-chloro-3-[(4-cyanophenyl)carbonyl]-2-fluorophenyl}propyl]amino}-butanamide]
IC50 [1]: 0.34 µM

CC[C@@H](N[C@H](C)CC(N)=O)c1ccc(Cl)c(C(=O)c2cccnc2)c1F [Example 94, (3R)-3-{[(1R)-1-{4-chloro-2-fluoro-3-[(pyridin-3-yl)carbonyl]phenyl}propyl]amino}butanamide]
IC50 [1]: 1 µM
IC50 [2]: 1 to 5 µM

CC[C@@H](N[C@H](C)CC(N)=O)c1ccc(Cl)c(C(=O)c2cccc(F)c2)c1F [Example 96, (3R)-3-{[(1R)-1-{4-chloro-2-fluoro-3-[(3-fluorophenyl)-carbonyl]phenyl}propyl]amino}butanamide]
inhibition at 0.3 µM (@ 0.3 uM): 58%

CC[C@@H](N[C@H](C)CC(N)=O)c1ccc(Cl)c(C(=O)c2ccc(F)cc2)c1F [Example 98, (3R)-3-{[(1R)-1-{4-chloro-2-fluoro-3-[(4-fluorophenyl)-carbonyl]phenyl}propyl]amino}butanamide]
IC50 [1]: 0.6 µM

CC[C@@H](N[C@@H](C)CC(N)=O)c1ccc(Cl)c(C(=O)c2ccncn2)c1F [Example 99, (3S)-3-{[(1R)-1-{4-chloro-2-fluoro-3-[(pyrimidin-4-yl)carbonyl]phenyl}propyl]-amino}butanamide]
IC50 [1]: 0.25 µM

CC[C@@H](N[C@H](C)CC(N)=O)c1ccc(Cl)c(C(=O)c2ccncn2)c1F [Example 100, (3R)-3-{[(1R)-1-{4-chloro-2-fluoro-3-[(pyrimidin-4-yl)carbonyl]phenyl}propyl]amino}butanamide]
IC50 [1]: 14 µM
IC50 [3]: < 30 µM

CC[C@@H](N[C@H](C)CC(N)=O)c1ccc(Cl)c(C(=O)c2cccc(C#N)c2)c1F [Example 102, (3R)-3-{[(1R)-1-{4-chloro-3-[(3-cyanophenyl)carbonyl]-2-fluorophenyl}propyl]amino}-butanamide]
IC50 [1]: 1.2 µM
IC50 [2]: 1 to 5 µM

CC[C@@H](N[C@H](C)CC(N)=O)c1ccc(Cl)c(C(=O)c2ccccn2)c1F [Example 105, (3R)-3-{[(1R)-1-{4-chloro-2-fluoro-3-[(pyridin-2-yl)carbonyl]phenyl}propyl]amino}butanamide]
inhibition at 30 µM: 57%
IC50 [3]: < 30 µM

CC[C@@H](N[C@H](C)CC(N)=O)c1ccc(Cl)c(C(=O)c2ccncc2)c1F [Example 107, (3R)-3-{[(1R)-1-{4-chloro-2-fluoro-3-[(pyridin-4-yl)carbonyl]phenyl}propyl]-amino}butanamide]
IC50 [1]: 1.1 µM
IC50 [2]: 1 to 5 µM

CC[C@@H](N[C@H](C)CC(N)=O)c1ccc(Cl)c(C(=O)c2ccns2)c1F [Example 109, (3R)-3-{[(1R)-1-{4-chloro-2-fluoro-3-[(1,2-thiazol-5-yl)carbonyl]phenyl}propyl]-amino}butanamide]
IC50 [1]: 0.47 µM

CC[C@@H](N[C@H](C)CC(N)=O)c1ccc(Cl)c(C(=O)c2cc(C)on2)c1F [Example 111, (3R)-3-{[(1R)-1-{4-chloro-2-fluoro-3-[(5-methyl-1,2-oxazol-3-yl)carbonyl]-phenyl}-propyl]amino}-butanamide]
IC50 [1]: 3.1 µM
IC50 [2]: 1 to 5 µM

C[C@H](CC(N)=O)N[C@@H](c1ccc(Cl)c(C(=O)c2ccccc2)c1F)C1CC1 [Example 112, (3R)-3-{[(R)-(3-benzoyl-4-chloro-2-fluorophenyl)(cyclopropyl)-methyl]amino}butanamide]
IC50 [1]: 0.62 µM

CC[C@@H](N[C@H](C)CC(N)=O)c1ccc(Cl)c(C(=O)c2ccccc2)c1F [Example 114, (3R)-3-{[(1R)-1-(3-benzoyl-4-chloro-2-fluorophenyl)-(2,2,3,3,3-D)propyl]amino}-butanamide]
IC50 [1]: 0.75 µM

CC[C@@H](N[C@H](C)CC(N)=O)c1ccc(Cl)c(C(=O)c2ccc[n+]([O-])c2)c1F [Example 117, (R)-3-{(R)-1-[4-Chloro-2-fluoro-3-(1-oxy-pyridine-3-carbonyl)-phenyl]propylamino}-butyramide]
Assay A % inhibition average (@ 10 uM): 16% @ 10 uM

C[C@H](CC(N)=O)N[C@@H](c1ccc(Cl)c(C(=O)c2cccnc2)c1F)C1CC1 [Example 118, (3R)-3-{[(R)-{4-chloro-2-fluoro-3-[(pyridin-3-yl)carbonyl]phenyl}(cyclopropyl)methyl]amino}-butanamide]
inhibition at 3 µM (@ 3 uM): 41%
IC50 [3]: < 30 µM

C[C@H](CC(N)=O)N[C@@H](c1ccc(Cl)c(C(=O)c2ccc(F)cc2)c1F)C1CC1 [Example 120, (3R)-3-{[(R)-{4-chloro-2-fluoro-3-[(4-fluorophenyl)carbonyl]phenyl}(cyclopropyl)methyl]amino}butanamide]
IC50 [1]: 1.2 µM
IC50 [2]: 1 to 5 µM

CC[C@@H](N[C@@H](C)CC(N)=O)c1ccc(Cl)c(C(=O)c2cccc(C(=O)O)c2)c1F [Example 122, 3-({3-[(1R)-1-{[(2S)-1-carbamoylpropan-2-yl]amino}propyl]-6-chloro-2-fluorophenyl}carbonyl)-benzoic acid]
IC50 [1]: 1.4 µM
IC50 [2]: 1 to 5 µM

CC[C@@H](N[C@H](C)CC(N)=O)c1ccc(Cl)c(C(=O)c2cccc(C(=O)O)c2)c1F [Example 123, 3-({3-[(1R)-1-{[(2R)-1-carbamoylpropan-2-yl]amino}propyl]-6-chloro-2-fluorophenyl}carbonyl)-benzoic acid]
IC50 [1]: 3.2 µM
IC50 [2]: 1 to 5 µM

[2H]C([2H])([2H])C([2H])([2H])[C@@H](N[C@H](C)CC(N)=O)c1ccc(Cl)c(C(=O)c2ccc3c(c2)OCC(=O)N3)c1F [Example 124, (3R)-3-{[(1R)-1-{4-chloro-2-fluoro-3-[(3-oxo-3,4-dihydro-2H-1,4-benzoxazin-7-yl)carbonyl]phenyl} (2,2,3,3,3-deutero)propyl]amino}-butanamide]
IC50 [1]: 1 µM
IC50 [2]: 1 to 5 µM

C[C@H](CC(N)=O)N[C@@H](c1ccc(Cl)c(C(=O)c2ccc(C#N)cc2)c1F)C1CC1 [Example 128, (3R)-3-{[(R)-{4-chloro-3-[(4-cyanophenyl)-carbonyl]-2-fluorophenyl}(cyclo-propyl)methyl]amino}-butanamide]
IC50 [1]: 0.28 µM
IC50 [2]: < 1 µM

C[C@@H](CC(N)=O)N[C@@H](c1ccc(Cl)c(C(=O)c2ccc(C#N)cc2)c1F)C1CC1 [Example 129, (3S)-3-{[(R)-{4-chloro-3-[(4-cyanophenyl)-carbonyl]-2-fluorophenyl}(cyclo-propyl)methyl]amino}-butanamide]
inhibition at 0.03 µM (@ 0.03 uM): 36%

C[C@H](CC(N)=O)N[C@@H](c1ccc(Cl)c(C(=O)c2ccncc2)c1F)C1CC1 [Example 130, (3R)-3-{[(R)-{4-chloro-2-fluoro-3-[(pyridin-4-yl)carbonyl]phenyl}-(cyclopropyl)methyl]-amino}butanamide]
IC50 [1]: 1.5 µM
IC50 [2]: 1 to 5 µM

CC[C@@H](N[C@H](C)C1(C(N)=O)CC1)c1ccc(Cl)c(C(=O)c2cccnc2)c1F [Example 131, 1-[(1R)-1-{[(1R)-1-{4-chloro-2-fluoro-3-[(pyridin-3-yl)carbonyl]phenyl}-propyl]-amino}ethyl]-cyclopropane-1-carboxamide]
IC50 [1]: 7.9 µM
IC50 [3]: < 30 µM

CC[C@@H](N[C@H](C)CC(N)=O)c1ccc(Cl)c(C(=O)c2cnc(N)cn2)c1F [Example 135, (3R)-3-{[(1R)-1-{3-[(5-aminopyrazin-2-yl)carbonyl]-4-chloro-2-fluorophenyl}propyl]-amino}butanamide]
IC50 [1]: 3.4 µM
IC50 [2]: 1 to 5 µM

CC[C@@H](N[C@@H](C)CC(N)=O)c1ccc(Cl)c(C(=O)c2ccc(N(C)C)nc2)c1F [Example 136, (3S)-3-{[(1R)-1-(4-chloro-3-{[6-(dimethylamino)pyridin-3-yl]carbonyl}-2-fluorophenyl)propyl]-amino}butanamide]
IC50 [1]: 0.83 µM
IC50 [2]: < 1 µM

CC[C@@H](N[C@H](C)CC(N)=O)c1ccc(Cl)c(C(=O)c2ccc(N(C)C)nc2)c1F [Example 137, (3R)-3-{[(1R)-1-(4-chloro-3-{[6-(dimethylamino)pyridin-3-yl]carbonyl}-2-fluorophenyl)propyl]amino}butanamide]
inhibition at 30 µM: 60%
IC50 [3]: < 30 µM

CC[C@@H](N[C@@H](C)CC(N)=O)c1ccc(Cl)c(C(=O)c2cnc(N)cn2)c1F [Example 138, (3S)-3-{[(1R)-1-{3-[(5-aminopyrazin-2-yl)carbonyl]-4-chloro-2-fluorophenyl}propyl]-amino}butanamide]
IC50 [1]: 0.31 µM
IC50 [2]: < 1 µM

CC[C@@H](N[C@H](C)CC(N)=O)c1ccc(Cl)c(C(=O)c2ccc(-n3cccn3)nc2)c1F [Example 140, (3R)-3-{[(1R)-1-(4-chloro-2-fluoro-3-{[6-(1H-pyrazol-1-yl)pyridin-3-yl]carbonyl}-phenyl)-propyl]amino}-butanamide]
IC50 [1]: 3.9 µM
IC50 [2]: 1 to 5 µM

CC[C@@H](N[C@H](C)CC(N)=O)c1ccc(Cl)c(C(=O)c2ccc(C#N)nc2)c1F [Example 141, (3R)-3-{[(1R)-1-{4-chloro-3-[(6-cyanopyridin-3-yl)carbonyl]-2-fluorophenyl}propyl]-amino}butanamide]
IC50 [1]: 0.47 µM
IC50 [2]: < 1 µM

CC[C@@H](N[C@H](C)CC(N)=O)c1ccc(Cl)c(C(=O)c2cc[n+]([O-])cc2)c1F [Example 143, (R)-3-{(R)-1-[4-Chloro-2-fluoro-3-(1-oxy-pyridine-4-carbonyl)-phenyl]propylamino}-butyramide]
Assay A % inhibition average: 59% @ 30 uM
IC50 [3]: < 30 µM
